The values that follow come from patent US20250214973A1, “1,4,5-TRISUBSTITUTED-1,2,3-TRIAZOLES AND USES THEREOF” (UNIVERSITY OF PUERTO RICO, priority 2022, published 2025).

Some results are limits rather than exact numbers.

Usually GI50 stands for the concentration at which growth is held to half of that of the control.

One data set has as its system MDA-MB-231. The data set can be described thus: Cell viability assay (MTT). It is filed as cell-based. The settings on record: Homo sapiens, MDA-MB-231. How it is done:
Cells plated at equal density were treated at 500 nM of compounds. […]
(§1) Cells plated at equal density were treated at 250 nM of 4c at 250 nM.
(§2) Data from 3 biologic replicates each with 2 technical replicates. Four parameter dose-response curves generated using GraphPad Prism are shown.
Cell viability relative to vehicle (100%) is shown.
(§3) […] Using CellTiter 96 Non-Radioactive Cell Proliferation Assay (Promega, Corp.) according to manufactures' instructions, formazan was used as an indicator of viable cells at an absorbance 570 nm in a Tecan Microplate Reader M100. Data was calculated as fold change from vehicle and fitted using the 4′parameter logic nonlinear regression model in GraphPad Prism software. (n=3 biologic replicates: with 3 technical replicates each).
A range of compounds were tested by MTT assays for cell viability in MDA-MB-231 triple negative breast cancer (TNBC) cells and MDA-MB-435 HER2++ cancer cells.

A further data set has as its system MDA-MB-435. The data set can be described thus: Cell viability assay (MTT). It is filed as cell-based, human. The settings on record: Homo sapiens, MDA-MB-435. How it is done: Cells plated at equal density were treated at 500 nM of compounds. After 72 hours, cell viability was measured by a MTT assay. n=3; * p<0.05, ** p<0.01, *** p<0.001.
as §1, §2
[…]. GI50 was calculated using Graph pad Prism.
as §3
A range of compounds were tested by MTT assays for cell viability in MDA-MB-231 triple negative breast cancer (TNBC) cells and MDA-MB-435 HER2++ cancer cells. […].

Data set [1] concerns human mammary epithelial cells (HMEC). The data set can be described thus: Cell viability assay (MTT). It is filed as cell-based. The settings on record: 0-1000 nM. How it is done:
Cells were treated with 4c at concentrations ranging from 0-1000 nM. Cell viability was assessed by a MTT assay. n=2.
Equal number of cells were seeded in a 24 well plate and incubated with vehicle or compounds according to this disclosure at concentrations between 1 and 0.001 nM for 72 and 120 hrs. Using CellTiter 96 Non-Radioactive Cell Proliferation Assay (Promega, Corp.) according to manufactures' instructions, formazan was used as an indicator of viable cells at an absorbance 570 nm in a Tecan Microplate Reader M100. Data was calculated as fold change from vehicle and fitted using the 4′parameter logic nonlinear regression model in GraphPad Prism software. (n=3 biologic replicates: with 3 technical replicates each).

In data set [2] the test system is Panc-1. The data set can be described thus: Cell viability assay (MTT). It is filed as cell-based. To be noted: Homo sapiens, 120 hours, 0-1000 nM. As to the method:
as §3

Data set [3] deals with Panc-1. In words: Wound healing assay. Format: cell-based. To be noted: Homo sapiens, 24 hr, read-out: inhibition of Panc-1 cell migration. As to the method: (§4) Mircrographs were digitally acquired at 0, 12, and 24 hours and the area of the wound quantified relative to the distance at time 0. n=3.
Panc-1 cells plated at equal density were subjected to a scratch in the center and treated with 4c at 0, 150 nM, 250 nM, or 500 nM. Mircrographs were digitally acquired at 0, 12, and 24 hours and the area of the wound quantified relative to the distance at time 0. n=3.

Data set [4] has as its system RAW264.7 macrophage cell line. In words: Wound healing assay. It is filed as cell-based, murine. To be noted: Mus musculus, read-out: inhibition of wound closure, RAW264.7. How it is done:
as §4
Murine macrophage cell line, RAW264.7, plated at equal density were subjected to a scratch in the center and treated with 4c at 0, 150 nM, 250 nM, or 500 nM. Mircrographs were digitally acquired at 0, 12, and 24 hours and the area of the wound quantified relative to the distance at time 0. n=3.

On to `CCn1c2ccccc2c2cc(-n3nnc(C(O)c4cccc(OC)c4)c3-c3ccccc3)ccc21` (stereo not drawn) [Compound 4c, (1-(9-ethyl-9H-carbazol-3-yl)-5-phenyl-1H-1,2,3-triazol-4-yl) (3-methoxyphenyl) methanol], for which the cytotoxicity at 0.5 µM was under 50% with MDA-MB-231 (500 nM, 72 hours, read-out: inhibition of MDA-MB-231 cell viability) and about 80% with MDA-MB-435 (500 nM, 72 hours, read-out: decrease in cell viability, MDA-MB-435). The GI50 in the data set on MDA-MB-231 (summary over breast cancer cell lines, read-out: GI50 for breast cancer cell viability inhibition) was about 300 nM; in the data set with MDA-MB-435 (120 hours, 0-1000 nM, read-out: GI50, MDA-MB-435), 261 nM; in the data set with Panc-1 [2], 235 nM. Also, the inhibition at […] with MDA-MB-435 (250 nM (FIG. 1C), read-out: inhibition of MDA-MB-435 cells) is about 60%; with Panc-1 [3] (250 nM) it was about 40%; in data set [4] (250 nM), 80%. Further, the “effect on non-transformed HMEC viability” value in data set [1] is “did not affect”. In addition, the inhibition at 0.5 µM is 75% in the data set on Panc-1 [3] (500 nM) and 90% in data set [4] (500 nM). For the same molecule, the inhibition at 0.15 µM in data set [4] (150 nM) amounted to 50%.
